Measurements reported in patent publication US12310940B2, “Cell-permeable succinate compounds” (ABLIVA AB, priority 2014, dated 2025).
pIC50: −log10 of the molar value. Entries after “also recorded” stand apart in the source; their conditions may differ.

What was measured:
[1] = system: intact cells; assay: Screening assay (2): enhancement and inhibition of mitochondrial energy producing function in intact cells (FCCP uncoupled); type: cell-based, human; design: key to Convergent (FCCP): graded either +, ++ or +++ in increasing order of potency; graded either +, ++ or +++ in increasing order of potency; graded either +, ++ or +++ in increasing order of potency; (+): Brackets [( )] indicate an intermediate effect; (++): Brackets [( )] indicate an intermediate effect; (+++) is between ++ and +++; conditions: for Convergent (FCCP): increase in mitochondrial oxygen consumption induced by the compound, screening assay 2 (uncoupled conditions); for Toxicity: lowest concentration during compound titration at which a decrease in oxygen consumption is seen, screening assay 2
Procedure: (§1) Measurement of mitochondrial respiration is performed in a high-resolution oxygraph (Oxygraph-2k, Oroboros Instruments, Innsbruck, Austria) at a constant temperature of 37° C. Isolated human platelets, white blood cells, fibroblasts, human heart muscle fibers or other cell types containing live mitochondria are suspended in a 2 mL glass chamber at a concentration sufficient to yield oxygen consumption in the medium of ≥10 pmol O2 s^−1 mL^−1.
(2) Assay for Enhancement and Inhibition of Mitochondrial Energy Producing Function in Intact Cells
In the second protocol the same buffer is used as described above. After basal respiration is established, the mitochondrial uncoupler FCCP is added at a concentration of 2 nM to increase metabolic demand.

[2] = system: Intact human blood cells; assay: Screening assay (4): enhancement of mitochondrial energy producing function in cells with inhibited respiratory complex I in human plasma; type: cell-based; design: key: graded either +, ++ or +++ in increasing order of potency; graded either +, ++ or +++ in increasing order of potency; graded either +, ++ or +++ in increasing order of potency; (+): Brackets [( )] indicate an intermediate effect; (++): Brackets [( )] indicate an intermediate effect; (+++) is between ++ and +++; conditions: increase in mitochondrial oxygen consumption in cells with inhibited complex I incubated in human plasma
Procedure: Measurement of mitochondrial respiration is performed in a high-resolution oxygraph (Oxygraph-2k, Oroboros Instruments, Innsbruck, Austria) at a constant temperature of 37° C. […] Intact human blood cells are incubated in plasma from the same donor. […] The experiment is terminated by addition of Antimycin at final concentration 1 μg/mL and any residual non-mitochondrial oxygen consumption is measured.

[3] = system: cells with inhibited complex I; assay: Screening assay (1): enhancement of mitochondrial energy producing function in cells with inhibited respiratory complex I (high-resolution respirometry); type: cell-based, human; design: key: graded either +, ++ or +++ in increasing order of potency; graded either +, ++ or +++ in increasing order of potency; graded either +, ++ or +++ in increasing order of potency; (+): Brackets [( )] indicate an intermediate effect; (++): Brackets [( )] indicate an intermediate effect; (+++) is between ++ and +++; conditions: increase in mitochondrial oxygen consumption in cells with inhibited complex I
Procedure: as §1
(1) Assay for Enhancement of Mitochondrial Energy Producing Function in Cells with Inhibited Respiratory Complex I
Cells are placed in a buffer containing 110 mM sucrose, HEPES 20 mM, taurine 20 mM, K-lactobionate 60 mM, MgCl2 3 mM, KH2PO4 10 mM, EGTA 0.5 mM, BSA 1 g/l, pH 7.1. […] Compounds dissolved in DMSO are titrated in a range of 10 μM to 10 mM final concentration. Subsequently, cell membranes are permeabilised with digitonin (1 mg/1*10^6 plt) to allow entry of extracellularly released energy substrate or cell impermeable energy substrates. After stabilized respiration, Succinate 10 mM is added as a reference to enable respiration downstream of complex I. After the respiration stabilized the experiment is terminated by addition of Antimycin at final concentration 1 μg/mL and any residual non-mitochondrial oxygen consumption is measured. An increase in respiration rate in the described protocol is tightly coupled to ATP synthesis by oxidative phosphorylation unless cells are uncoupled (i.e. proton leak without production of ATP). Uncoupling is tested for by addition of the ATP synthase inhibitor oligomycin (1-2 μg mL^−1) in a protocol 3 where the extent of uncoupling corresponds to the respiratory rate following oligomycin addition.

[4] = system: intact cells; assay: Screening assay (3): assay to assess uncoupling in intact cells; type: cell-based, human; design: key: graded either +, ++ or +++ in increasing order of potency; graded either +, ++ or +++ in increasing order of potency; graded either +, ++ or +++ in increasing order of potency; (+): Brackets [( )] indicate an intermediate effect; (++): Brackets [( )] indicate an intermediate effect; (+++) is between ++ and +++; conditions: for Convergent (Routine): increase in mitochondrial oxygen consumption induced by the compound; for Uncoupling: level of oxygen consumption after addition of oligomycin
Procedure: Measurement of mitochondrial respiration is performed in a high-resolution oxygraph (Oxygraph-2k, Oroboros Instruments, Innsbruck, Austria) at a constant temperature of 37° C. […] In the third protocol, the same buffer as described above is used. […] Subsequently, the ATP-synthase-inhibitor Oligomycin is added. A reduction in respiration is a measure of how much of the oxygen consumption that is coupled to ATP synthesis. No, or only a slight, reduction indicate that the compound is inducing a proton leak over the inner mitochondrial membrane. The uncoupler FCCP is then titrated to induce maximum uncoupled respiration. […] The experiment is terminated by the addition of 1 μg/mL of the complex III inhibitor Antimycin to measure non-mitochondrial oxygen consumption.

[5] = system: intact PBMCs; assay: Lactate release of intact PBMCs exposed to metformin; type: cell-based, human; conditions: 10 mM metformin, data not shown
[6] = system: intact human platelets
Procedure: Real-time respirometric measurements were performed using high-resolution oxygraphs (Oxygraph-2k, Oroboros Instruments, Innsbruck, Austria). The experimental conditions during the measurements were the following: 37° C., 2 mL active chamber volume and 750 rpm stirrer speed. […] For data recording, DatLab software version 4 and 5 were used (Oroboros Instruments, Innsbruck, Austria). Settings, daily calibration and instrumental background corrections were conducted according to the manufacturer's instructions. […] All measurements were performed at a platelet concentration of 200×10^6 cells per mL or a PBMC concentration of 5×10^6 cells per mL.
Venous blood from 18 healthy adults (11 males and 7 females) was drawn in K2EDTA tubes (BD Vacutainer® Brand Tube with dipotassium EDTA, BD, Plymouth, UK) according to clinical standard procedure after written informed consent was acquired. For platelet isolation the whole blood was centrifuged (Multifuge 1 S—R Heraeus, Thermo Fisher Scientifics, Waltham, USA) at 500 g at room temperature (RT) for 10 min. Platelet-rich plasma was collected to 15 mL falcon tubes and centrifuged at 4600 g at RT for 8 min. The resulting pellet was resuspended in 1-2 mL of the donor's own plasma. […] The blood remaining after isolation of platelets was washed with an equal volume of physiological saline and layered over 3 mL of Lymphoprep™. After centrifugation at 800 g at RT (room temperature) for 30 min the PBMC layer was collected and washed with physiological saline. Following a centrifugation at 250 g at RT for 10 min the pellet of PBMCs was resuspended in two parts of physiological saline and one part of the donor's own plasma. Cell count for both PBMCs and platelets were performed using an automated hemocytometer (Swelab Alfa, Boule Medical AB, Stockholm, Sweden).
Routine respiration was followed for 60 min at 37° C. before the ATP-synthase inhibitor oligomycin (1 μg mL^−1) was added to assess LEAK respiration. Maximal uncoupled respiratory electron transport system capacity supported by endogenous substrates (ETS) was reached by titration of FCCP.

[7] = system: permeabilized human PBMCs; assay: cells; conditions: PBMC, read-out: IC50 for inhibition of OXPHOSCI
Procedure: Real-time respirometric measurements were performed using high-resolution oxygraphs (Oxygraph-2k, Oroboros Instruments, Innsbruck, Austria). The experimental conditions during the measurements were the following: 37° C., 2 mL active chamber volume and 750 rpm stirrer speed. […] For data recording, DatLab software version 4 and 5 were used (Oroboros Instruments, Innsbruck, Austria). Settings, daily calibration and instrumental background corrections were conducted according to the manufacturer's instructions. […] Standard non-linear curve fitting was applied to calculate half maximal inhibitory concentration (IC50) values. […] Maximal uncoupled respiratory electron transport system capacity supported by convergent input through complex I and […] ) was evaluated by subsequent titration with the protonophore carbonyl-cyanide p-(trifluoromethoxy) phenylhydrazone (FCCP). […] The complex III inhibitor antimycin (1 μg mL^-1) was then given to reveal residual oxygen consumption (ROX). […] Complex IV activity was calculated by subtracting the sodium azide value from the TMPD value. With exception of complex IV activity, all respiratory states were measured at steady-state and corrected for ROX. Complex IV activity was measured after ROX determination and not at steady-state.

[8] = Al-Abri et al., 2013; cited from earlier work
[9] = system: intact human platelets; assay: Intervention on metformin- or rotenone-induced lactate production with cell-permeable succinate prodrugs; type: cell-based; conditions: for effect on rotenone-induced lactate production: 2 μM rotenone, repeated additions of 250 μM; for effect on lactate production of metformin-incubated cells: 10 mM metformin, additions of 250 μM each 30 minutes
Procedure: Lactate production of intact human platelets was determined in PBS containing 10 mM glucose.
(§2) Lactate levels are determined every 2 h (or more frequent eg every 30 min) using the Lactate Pro™ 2 blood lactate test meter (Arkray, Alere AB, Lidingö, Sweden) or similar types of measurements. Incubation is performed at 37° C. pH is measured at start, after 4 and after 8 h (or more frequently) of incubation using a Standard pH Meter, e.g. PHM210 (Radiometer, Copenhagen, Denmark). Drug candidates are added to the assay from start or following 30-60 min at concentrations within the range 10 μM-5 mM. […] In order to evaluate the specificity of the drug candidate, it is also tested in combination with a down-stream inhibitor of respiration such as the complex III inhibitor Antimycin at 1 μg/mL, which should abolish the effect of the drug candidate and restore the production of lactate. The use of antimycin is therefore also a control for undue effects of drug candidates on the lactate producing ability of the cells used in the assay. (See e.g. FIGS. 9, 10 and 11).
Lactate levels were measured in intervals of 30 min with the onset of the experiment. Additionally, pH was measured prior to the first addition of vehicle (dmso, control), the different cell-permeable succinate prodrugs (NV118, NV189, NV241) or succinate and at the end of the experiment.

[10] = system: intact cells; assay: Assays exemplified in the patent (not specified further) for known succinate esters; type: cell-based
Excerpt: I. Assays for Evaluating Enhancement and Inhibition of Mitochondrial Energy Producing Function in Intact Cells
Four Typical Evaluation Protocols in Intact Cells are Utilized.

[11] = system: permeabilized human platelets; assay: cells; conditions: Platelet, read-out: IC50 for inhibition of OXPHOSCI
Procedure: (§3) Real-time respirometric measurements were performed using high-resolution oxygraphs (Oxygraph-2k, Oroboros Instruments, Innsbruck, Austria). The experimental conditions during the measurements were the following: 37° C., 2 mL active chamber volume and 750 rpm stirrer speed. […] For data recording, DatLab software version 4 and 5 were used (Oroboros Instruments, Innsbruck, Austria). Settings, daily calibration and instrumental background corrections were conducted according to the manufacturer's instructions. […] Lactate production of intact human platelets was determined in PBS containing 10 mM glucose. All measurements were performed at a platelet concentration of 200×10^6 cells per mL or a PBMC concentration of 5×10^6 cells per mL.
(§4) All respiratory, lactate and pH data are expressed as mean±SEM. Ratios are plotted as individuals and means. One-way ANOVA was used for one-factor comparison of three or more groups (concentration of drugs) and two-way mixed model ANOVA was used for two-factor comparison (time and concentration of drugs/treatment) of three or more groups. Post-hoc tests to compensate for multiple comparisons were done according to Holm-Sidak. Correlations were expressed as r^2 and P-values. […]
(§5) In order to investigate the specific target of biguanide toxicity, a protocol was applied using digitonin permeabilization of the blood cells and sequential additions of respiratory complex-specific substrates and inhibitors in MiR05 medium. […] Maximal uncoupled respiratory electron transport system capacity supported by convergent input through complex I and II (ETSCI+II) was evaluated by subsequent titration with the protonophore carbonyl-cyanide p-(trifluoromethoxy) phenylhydrazone (FCCP). […] Complex IV activity was calculated by subtracting the sodium azide value from the TMPD value. With exception of complex IV activity, all respiratory states were measured at steady-state and corrected for ROX. Complex IV activity was measured after ROX determination and not at steady-state.

[12] = system: intact human platelets; assay: Effect of metformin and phenformin on lactate production and pH of intact human platelets; type: cell-based; conditions: metformin 1 and 10 mM, phenformin 0.5 mM, rotenone 2 μM
Procedure: as §2
Incubation was performed at 37° C. at a stirrer speed of 750 rpm, and pH was measured at start, after 4 and after 8 h of incubation (n=4) using a PHM210 Standard pH Meter (Radiometer, Copenhagen, Denmark).

[13] = patients; cited from earlier work
[14] = system: permeabilized human platelets
Procedure: as §3, §4, §5

With CCC(=O)N[C@@H](CSC(=O)CCC(=O)SC[C@H](NC(=O)CC)C(=O)N(CC)CC)C(=O)N(CC)CC [01-185, S,S-bis((R)-3-(diethylamino)-3-oxo-2-propionamidopropyl) butanebis(thioate)] the “Convergent (FCCP)” value [1] was “+”, the Toxicity [1] was 2 mM and the “CII (plasma)” value [2] was “+”. For the same compound, the CII [3] was “+”, the “Convergent (Routine)” value [4] was “(+)” and the Uncoupling [4] was “(+)”.

For CCC(=O)N[C@@H](CSC(=O)CCC(=O)O)C(=O)O [01-041, (R)-4-(2-carboxy-2-propionamidoethylthio)-4-oxobutanoic acid], the “Convergent (FCCP)” value [1] was “+++”, the Toxicity [1] was 5 mM and the “CII (plasma)” value [2] was “+”. For the same compound, the CII [3] was “++”, the “Convergent (Routine)” value [4] was “+” and the Uncoupling [4] was “(+)”.

With CN(C)C(=N)N=C(N)N [metformin] the “lactate release of intact PBMCs” value [5] was “increased lactate release”, the “LEAK respiration in intact cells” value ([6]; data not shown) was “not significantly changed” and the “toxic concentration seen in the present study” value ([6]; human blood cells) was 1 mM. For the same compound, the “reversibility of complex I inhibition upon removal of the drug” value ([6]; washing and permeabilizing the cells) was “did not seem to be reversible”, the pIC50 [7] was 3.35 and the “serum level in a case report of involuntary intoxication, prior to hemodialysis” value [8] was “over 2 mM”.

With CC(=O)OCOC(=O)CCC(=O)OCOC(C)=O [NV118] the “effect on rotenone-induced lactate production” value [9] was “attenuated” and the “effect on lactate production of metformin-incubated cells” value (from here on “effect on lactate production”) [9] was “significantly decreased”.

For CCOC(=O)CCC(=O)OCC [Diethyl succinate], the “activity in the assays exemplified” value [10] was “inactive”.

For CC(=O)OCOC(=O)CCC(=O)OC(C)OC(C)=O (stereo not drawn) [NV241], the “effect on rotenone-induced lactate production” value [9] was “attenuated” and the “effect on lactate production” value [9] was “significantly decreased”.

In the case of [H]/N=C(/N)N/C(=N/[H])NCCc1ccccc1 [phenformin], the pIC50 [11] is listed as 4.24, the “lactate produced over 8 h of treatment compared to control” value [12] is listed as “significantly more lactate” and the “incidence of lactic acidosis” value [13] is listed as 4 cases per 10000 treatment-years. The “effect on OXPHOSCI, OXPHOSCI+II and ETSCI+II” value [14] was “inhibited” and the “potency of inhibition of OXPHOSCI relative to metformin” value [14] was 20 fold.

In the case of CCC(=O)N[C@@H](CSC(=O)CCC(=O)SC[C@H](NC(=O)CC)C(=O)OC)C(=O)OC [01-205, (R)-methyl 3-(4-((R)-3-methoxy-3-oxo-2-propionamidopropylthio)-4-oxobutanoylthio)-2-propionamidopropanoate], the “Convergent (FCCP)” value [1] was “++”, the Toxicity [1] was 5 mM and the “CII (plasma)” value [2] was “+”. The CII [3] was “++”, the “Convergent (Routine)” value [4] was “+++” and the Uncoupling [4] was “(+)”.

With CCN(CC)C(=O)COCCSC(=O)CCC(=O)O [01-193, 4-(2-(2-(diethylamino)-2-oxoethoxy)ethylthio)-4-oxobutanoic acid] the “Convergent (FCCP)” value [1] was “+”, the Toxicity [1] was 5 mM and the “CII (plasma)” value [2] was “(+)”. For the same compound, the CII [3] was “+”, the “Convergent (Routine)” value [4] was “(++)” and the Uncoupling [4] was “+”.

With CCC(=O)NCCSC(=O)CCC(=O)O [01-114, 4-oxo-4-(2-propionamidoethylthio)butanoic acid] the “Convergent (FCCP)” value [1] was “++”, the Toxicity [1] was 10 mM and the “CII (plasma)” value [2] was “+”. For the same compound, the CII [3] was “++”, the “Convergent (Routine)” value [4] was “+++” and the Uncoupling [4] was “(+)”.

With COC(=O)CCC(=O)O [monomethyl succinate] the “activity in the assays exemplified” value [10] was “inactive”.

With CC(=O)NCCSC(=O)CCC(=O)O [01-108, 4-(2-acetamidoethylthio)-4-oxobutanoic acid] the “Convergent (FCCP)” value [1] was “++”, the Toxicity [1] was 10 mM and the “CII (plasma)” value [2] was “(+)”. For the same compound, the CII [3] was “(++)”, the “Convergent (Routine)” value [4] was “++” and the Uncoupling [4] was “+”.

For CC(=O)NCC(C)(C)SC(=O)CCC(=O)O [01-188, 4-(1-acetamido-2-methylpropan-2-ylthio)-4-oxobutanoic acid], the “Convergent (FCCP)” value [1] was “+++”, the Toxicity [1] was 5 mM and the “CII (plasma)” value [2] was “+”. For the same compound, the CII [3] was “+”, the “Convergent (Routine)” value [4] was “+++” and the Uncoupling [4] was “(+)”.

With COC(=O)CCC(=O)OC [dimethyl succinate] the “activity in the assays exemplified” value [10] was “inactive”.

With CC(=O)OC(C)OC(=O)CCC(=O)OC(C)OC(C)=O (stereo not drawn) [NV189] the “effect on rotenone-induced lactate production” value [9] was “attenuated; also recorded: brought back to normal” and the “effect on lactate production” value [9] was “significantly decreased”.

In the case of O=C(O)CCC(=O)O [succinate], the “effect on lactate production” value [9] was “did not reduce; also recorded: did not change this”.
